# According to patent US10406140B2, “5-substituted benzimidazole and 5-substituted azabenzimidazole derivative both having AMPK activation effect” (Shionogi & Co., Ltd., priority 2016, dated 2019):
# Target: T1, Human AMPK α2ß2γ1 (Homo sapiens, UniProt O43741+P54646)
# T1 construct: The full length cDNAs of human AMPK ß2 (NM_005399.3) and human AMPK α2 (NM_006252.3); The full length cDNAs of human AMPK ß2 (NM_005399.3); 6xHis (N); made in house; host or cells: Escherichia coli BL21 CodonPlus (DE3)-RIL
# Experiment: Test Example 2: activator evaluation on phosphorylated human AMPK α2ß2γ1 (mobility-shift assay, FL-Peptide 7)
# Assay type: biochemical
# Details: human AMPK α2ß2γ1 pre-phosphorylated with CaMKK2; for EC150 (compound concentration showing 150% relative to the control (100%)): 25° C., 2 hours, 1% DMSO; for Emax: control without compound = 100%, read-out: Emax (maximum rate of increase in activity within the measurement range)
# Method: The full length cDNAs of human AMPK ß2 (NM_005399.3) and human AMPK α2 (NM_006252.3) were inserted into the MCS1 and MCS2 of the pETDuet-1 vector to prepare a human AMPK ß2 and human AMPK α2 (6× His tag at the 5′ terminus) expressing plasmid. The plasmid was cotransfected with an expression plasmid, in which the full length cDNA of human AMPK γ1 (NM_002733.3) had been inserted into pET28b(+), into BL21 CodonPlus (DE3)-RIL to obtain an expression strain. The expression strain was cultured in TB medium, followed by induction with 0.5 mM IPTG, and cultured at 25° C. for 3 hours and then harvested.
# Preparation method of human CaMKK2 used to impart activity to AMPK An expression vector, in which the full length cDNA of human CAMKK ß (NM_172226.1) had been inserted into pGEX-6P-3, was transfected into BL21 Star (DE3). The expression strain was cultured in TB medium, followed by induction with 0.5 mM IPTG, and cultured at 25° C. for 3 hours and then harvested.
# Thus, phosphorylation treatment was carried out as pretreatment.
# Human AMPK α2ß2γ1 in an amount to give a conversion rate of approximately 10% by reaction for 2 hours, and CaMKK2 in an amount capable of sufficiently imparting activity to AMPK for one hour were mixed in a buffer solution consisting of a 50 mM HEPES-NaOH buffer solution (pH 7.0), 100 mM NaCl, 5 mM magnesium chloride, 0.1% bovine serum albumin, 0.2 mM sodium orthovanadate(V), 1 mM ethylene glycol-bis(2-aminoethyl ether)-N,N,N′,N′-tetraacetic acid (EGTA), 5 mM disodium ß-glycerophosphate, 1 mM dithiothreitol and 0.2 mM ATP, and the resulting liquid was left to stand at 25° C. for 1 to 1.5 hours to sufficiently phosphorylate AMPK.
# The resulting liquid was left to stand for 10 minutes.
# The resulting liquid was allowed to react at 25° C. for 2 hours, and 10 μl of 20 mM EDTA was added thereto to stop the reaction.
# To detect phosphorylated fluorescent substrates, the reaction mixture was applied to a measuring device, LabChip EZ Reader II manufactured by Caliper Life Science, Inc., for detecting fluorescence by using differences in mobility due to differences in charge. The setting conditions for the device were pressure, −1.5 PSI; upstream voltage, −2250 V; downstream voltage, −400 V; post sample buffer sip time, 40 seconds; final delay, 120 seconds; and peak order, Product First.
# A conversion rate was calculated from the peak heights of the obtained substrate and product. The conversion rate when not containing a compound was used as a control, and a concentration dependent curve was made by plotting the rate of increase in activity to the control at each concentration of a compound.
# T1 sequence (P54646 whole entry): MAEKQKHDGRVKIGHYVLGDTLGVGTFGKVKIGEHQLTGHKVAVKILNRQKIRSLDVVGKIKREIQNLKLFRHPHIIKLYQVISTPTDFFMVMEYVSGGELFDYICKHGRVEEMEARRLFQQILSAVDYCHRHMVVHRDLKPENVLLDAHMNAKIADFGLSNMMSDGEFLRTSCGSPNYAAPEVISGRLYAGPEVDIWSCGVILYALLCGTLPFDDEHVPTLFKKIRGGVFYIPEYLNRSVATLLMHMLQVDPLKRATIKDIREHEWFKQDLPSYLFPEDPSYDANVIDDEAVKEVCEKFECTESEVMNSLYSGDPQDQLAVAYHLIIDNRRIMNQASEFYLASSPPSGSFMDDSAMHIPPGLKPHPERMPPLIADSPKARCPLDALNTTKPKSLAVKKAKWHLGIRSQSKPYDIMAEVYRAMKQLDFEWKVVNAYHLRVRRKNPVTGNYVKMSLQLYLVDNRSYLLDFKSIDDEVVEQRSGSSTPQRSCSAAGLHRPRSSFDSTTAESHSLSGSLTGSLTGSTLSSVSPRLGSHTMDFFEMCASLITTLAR
# T1 sequence (O43741 whole entry): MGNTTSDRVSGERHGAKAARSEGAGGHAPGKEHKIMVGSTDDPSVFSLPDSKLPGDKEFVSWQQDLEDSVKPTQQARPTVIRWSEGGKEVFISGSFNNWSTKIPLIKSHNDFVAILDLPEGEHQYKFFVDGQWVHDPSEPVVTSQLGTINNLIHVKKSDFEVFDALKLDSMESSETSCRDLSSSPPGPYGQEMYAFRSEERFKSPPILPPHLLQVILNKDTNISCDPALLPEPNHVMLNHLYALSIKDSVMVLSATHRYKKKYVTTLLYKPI
# T1 sequence (P54619 whole entry partner): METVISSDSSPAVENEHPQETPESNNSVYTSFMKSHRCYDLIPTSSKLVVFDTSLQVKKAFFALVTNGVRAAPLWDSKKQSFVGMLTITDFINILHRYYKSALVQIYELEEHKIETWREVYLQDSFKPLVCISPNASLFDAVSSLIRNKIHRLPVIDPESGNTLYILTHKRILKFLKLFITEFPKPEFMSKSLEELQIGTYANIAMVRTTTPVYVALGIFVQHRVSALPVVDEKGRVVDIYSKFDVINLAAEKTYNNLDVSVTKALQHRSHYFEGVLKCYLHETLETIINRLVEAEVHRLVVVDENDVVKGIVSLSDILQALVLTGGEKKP
Structure (SMILES),EC150 (compound concentration showing 150% relative to the control (100%)),Emax
CS(C)(=O)=Nc1ccc(-c2ccc(-c3nc4nc(O[C@@H]5CO[C@H](CO)[C@H]5F)[nH]c4cc3F)cc2)cc1 [Compound (I-1-10)],3.1 nM,399%
CN=S(C)(=N)c1ccc(-c2ccc(-c3nc4nc(O[C@@H]5CO[C@H](CO)C5(F)F)[nH]c4cc3F)cc2)cc1 (some centres unmarked) [Compound (I-2-11)],1.2 nM,649%
CS(C)(=O)=Nc1ccc(-c2ccc(-c3nc4nc(O[C@@H]5CO[C@H](CO)C5(F)F)[nH]c4cc3F)c(F)c2)cc1 [Compound (I-2-8)],0.75 nM,619%
CS(C)(=O)=NC1CC=C(c2ccc(-c3nc4nc(O[C@@H]5CO[C@H](CO)C5(F)F)[nH]c4cc3F)cc2)CC1 (some centres unmarked) [Compound (I-2-10)],2.1 nM,604%
CS(C)(=O)=Nc1ccc(-c2ccc(-c3nc4nc(O[C@@H]5CO[C@H]6[C@@H]5OC[C@H]6O)[nH]c4cc3F)cc2)cc1 [Compound (I-1-2)],0.93 nM,556%
CCS(=O)(CC)=Nc1ccc(-c2ccc(-c3nc4nc(O[C@@H]5CO[C@H](CO)C5(F)F)[nH]c4cc3F)cc2)cc1 [Compound (I-2-12)],0.54 nM,595%
CNS(C)(=O)=Nc1ccc(-c2ccc(-c3nc4nc(O[C@@H]5CO[C@H](CO)C5(F)F)[nH]c4cc3Cl)cc2)cc1 (some centres unmarked) [Compound (I-1-12)],2.4 nM,649%
CS(C)(=O)=NC1CC=C(c2ccc(-c3nc4nc(O[C@@H]5CO[C@H](CO)C5(F)F)[nH]c4cc3Cl)cc2)CC1 (some centres unmarked) [Compound (I-2-9)],1.3 nM,652%
CS(C)(=O)=Nc1ccc(-c2ccc(-c3nc4nc(O[C@@H]5CO[C@H](CO)[C@@H]5F)[nH]c4cc3Cl)cc2)cc1 [Compound (I-1-6)],7.4 nM,514%
COC(=O)NC1CC=C(c2ccc(-c3nc4nc(O[C@@H]5CO[C@H](CO)C5(F)F)[nH]c4cc3Cl)cc2)CC1 (some centres unmarked) [Compound (I-1-9)],9.5 nM,389%
COC(=O)NC1CC=C(c2ccc(-c3nc4nc(O[C@@H]5CO[C@H](CO)[C@H]5F)[nH]c4cc3Cl)cc2)CC1 (some centres unmarked) [Compound (I-1-8)],21 nM,412%
CS(C)(=O)=Nc1ccc(-c2ccc(-c3nc4nc(O[C@@H]5CO[C@H](CO)C5(F)F)[nH]c4cc3Cl)cc2)nc1 [Compound (I-2-4)],9.7 nM,493%
CS(C)(=O)=Nc1ccc(-c2ccc(-c3nc4nc(OCCO)[nH]c4cc3Cl)cc2)cc1 [Compound (I-1-3)],19 nM,235%
CS(C)(=O)=Nc1ccc(-c2ccc(-c3nc4nc(O[C@@H]5CO[C@H](CO)[C@H]5F)[nH]c4cc3Cl)cc2)cc1 [Compound (I-1-5)],1.4 nM,539%
CS(C)(=O)=Nc1ccc(-c2ccc(-c3nc4nc(O[C@@H]5CO[C@H](CO)C5(F)F)[nH]c4cc3F)cc2)cc1 [Compound (I-1-11)],1.1 nM,601%
CCS(=O)(CC)=Nc1ccc(-c2ccc(-c3nc4nc(O[C@@H]5CO[C@H](CO)C5(F)F)[nH]c4cc3Cl)cc2)cc1 [Compound (I-2-5)],6.2 nM,575%
CC(=O)NC(C)(C)c1ccc(Oc2nc3nc(-c4ccc(-c5ccc(N=S(C)(C)=O)cc5)cc4)c(Cl)cc3[nH]2)cc1 [Compound (I-1-4)],3.8 nM,364%
CN=S(C)(=N)c1ccc(-c2ccc(-c3nc4nc(O[C@@H]5CO[C@H](CO)C5(F)F)[nH]c4cc3Cl)cc2)cc1 (some centres unmarked) [Compound (I-2-2)],3.1 nM,604%
CS(C)(=O)=Nc1ccc(-c2ccc(-c3nc4nc(O[C@@H]5CO[C@H](CO)C5(F)F)[nH]c4cc3F)cc2)nc1 [Compound (I-2-7)],3.1 nM,445%
CS(C)(=O)=Nc1ccc(-c2ccc(-c3nc4nc(O[C@@H]5CO[C@H](CO)C5(F)F)[nH]c4cc3Cl)cc2)cc1 [Compound (I-1-7)],2.1 nM,504%
O=S1(=Nc2ccc(-c3ccc(-c4nc5nc(O[C@@H]6CO[C@H](CO)C6(F)F)[nH]c5cc4Cl)cc3)cc2)CCOCC1 [Compound (I-2-6)],3.0 nM,578%
CS(C)(=O)=Nc1ccc(-c2ccc(-c3nc4nc(O[C@@H]5CO[C@H](CO)C5(F)F)[nH]c4cc3Cl)c(F)c2)cc1 [Compound (I-2-3)],4.2 nM,609%
